Data on 16 molecules can be found in patent US20260207615A1, “FLUOROPYRIDOPYRIMIDINE AND FLUOROQUINAZOLINE DERIVATIES AND METHODS OF USE THEREOF” (Frontier Medicines Corporation, priority 2022, published 2026).

pIC50: −log10 of the molar value.

The target in the experiment is T1, KRAS G12C and cRAF interaction (Homo sapiens, UniProt P01116, C118S/C51S/C80L/G12C).
T1 construct: truncated version comprising amino acids 1-169
T1 sequence (P01116 1-169 isoform P01116-2 G12C/C51S/C80L/C118S): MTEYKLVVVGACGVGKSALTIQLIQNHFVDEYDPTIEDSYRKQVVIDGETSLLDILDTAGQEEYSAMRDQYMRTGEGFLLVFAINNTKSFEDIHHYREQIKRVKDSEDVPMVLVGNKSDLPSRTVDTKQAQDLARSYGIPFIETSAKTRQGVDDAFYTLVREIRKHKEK
Briefly: Inhibition of KRAS G12C and cRAF binding (AlphaScreen). In kind it is biochemical. The note with it: KRAS G12C (Cys-light, aa 1-169) preloaded with GMPPNP, cRaf RBD (aa 50-131), 2 hours incubation. How it is done: The AlphaScreen technology was used to determine IC50s for compound inhibition of KRAS G12C (present as the Cys-light (C51S, C80L and C118S), truncated version comprising amino acids 1-169) and cRAF interaction. Compounds were diluted in 100% DMSO and each compound concentration was spotted at 200 nl/well onto low volume, white 384 well plates. The KRAS G12C contained a biotin-AviTag and the cRaf, as Ras-binding domain (amino acids 50-131, RBD), was GST-tagged. KRAS G12C was preloaded with the GTP analogue Guanosine 5′-[β,γ-imido]triphosphate (GMPPNP). The KRAS G12C was diluted in 25 mM Hepes, pH 7.4, 150 mM NaCl, 5 mM MgCl2, 0.01% TritonX-100 and 10 μM GMPPNP and added at 10 μl/well to compound-spotted plates resulting in a DMSO concentration of 2%. Plates were incubated for 2 hours. A mixture of RBD and the AlphaScreen streptavidin donor and glutathione acceptor beads diluted in 25 mM Hepes, pH 7.4, 150 mM NaCl, 5 mM MgCl2, 0.01% TritonX-100 and 2% DMSO was then added at 10 μl/well and incubated for 60-90 minutes before the samples were read for emission at 570 nm after excitation of the donor beads at 680 nm. All incubations were performed at room temperature. The final top compound concentration was 50 μM with 1:3 titrations for 10-point dose response curves. Final assay conditions were 0.5 nM KRAS G12C, 0.75 nM RBD and 5 μg/ml each of AlphaScreen donor and acceptor beads. IC50S were determined using nonlinear regression fit of [inhibitor] vs. response (4 parameters).
A counter assay was also set up to rule out inhibitors of the AlphaScreen technology itself. Compound plates were incubated for 2 hours as above with buffer only.
The AlphaScreen beads were added as above except biotin-AviTag-GST was substituted for the RBD. Samples were read and analyzed as above.
On the technique in general: Bead proximity is the source of the signal in Alpha formats.
Consider `Cc1nccc(/C=C/C(=O)N2CCN(c3nc(OC[C@@]45CCCN4C[C@H](F)C5)nc4c(F)c(-c5cccc6ccc(F)c(Cl)c56)ncc34)CC23COC3)n1` [Example 6, (E)-1-(8-(7-(8-chloro-7-fluoronaphthalen-1-yl)-8-fluoro-2-(((2R,7aS)-2-fluorotetrahydro-1H-pyrrolizin-7a(5H)-yl)methoxy)pyrido[4,3-d]pyrimidin-4-yl)-2-oxa-5,8-diazaspiro[3.5]nonan-5-yl)-3-(2-methylpyrimidin-4-yl) prop-2-en-1-one], for which the pIC50 – broadly, −log10 of the IC50, conventionally taken in molar units – was 7.00 to 8.00.
Take `C=CC(=O)N1CCN(c2nc(OC[C@@]34CCCN3C[C@H](F)C4)nc3c(F)c(-c4cccc5ccc(F)c(F)c45)ncc23)CC12CCOC2` (stereo partly shown) [Example 82]: the pIC50 is 7.00 to 8.00.
Molecule `O=C(C#CCN1CC2CCC(C1)O2)N1CCN(c2nc(OC[C@@]34CCCN3C[C@H](F)C4)nc3c(F)c(-c4cccc5cccc(Cl)c45)ncc23)CC12COC2` [Example 47, 4-(8-oxa-3-azabicyclo[3.2.1]octan-3-yl)-1-(8-(7-(8-chloronaphthalen-1-yl)-8-fluoro-2-(((2R,7aS)-2-fluorotetrahydro-1H-pyrrolizin-7a(5H)-yl)methoxy)pyrido[4,3-d]pyrimidin-4-yl)-2-oxa-5,8-diazaspiro[3.5]nonan-5-yl) but-2-yn-1-one] gave a pIC50 of 6.30 to 7.00.
With `CC(C#CC(=O)N1CCN(c2nc(OC[C@@]34CCCN3C[C@H](F)C4)nc3c(F)c(-c4cccc5cccc(Cl)c45)ncc23)CC12COC2)N1CCOCC1` (stereo partly drawn) [Example 40, 1-(8-(7-(8-chloronaphthalen-1-yl)-8-fluoro-2-(((2R,7aS)-2-fluorotetrahydro-1H-pyrrolizin-7a(5H)-yl)methoxy)pyrido[4,3-d]pyrimidin-4-yl)-2-oxa-5,8-diazaspiro[3.5]nonan-5-yl)-4-morpholinopent-2-yn-1-one], the pIC50 was 6.30 to 7.00.
For `O=C(/C=C/CN1[C@@H]2CC[C@H]1COC2)N1CCN(c2nc(OC[C@@]34CCCN3C[C@H](F)C4)nc3c(F)c(-c4cccc5ccc(F)c(Cl)c45)ncc23)CC12COC2` [Example 23, (E)-4-((1R,5S)-3-oxa-8-azabicyclo[3.2.1]octan-8-yl)-1-(8-(7-(8-chloro-7-fluoronaphthalen-1-yl)-8-fluoro-2-(((2R,7aS)-2-fluorotetrahydro-1H-pyrrolizin-7a(5H)-yl)methoxy)pyrido[4,3-d]pyrimidin-4-yl)-2-oxa-5,8-diazaspiro[3.5]nonan-5-yl) but-2-en-1-one], the pIC50 was over 8.00.
`O=C(/C=C/CN1CCOCC1)N1CCN(c2nc(OC[C@@]34CCCN3C[C@H](F)C4)nc3c(F)c(-c4cccc5cccc(Cl)c45)ncc23)CC12COC2` [Example 12, (E)-1-(8-(7-(8-chloronaphthalen-1-yl)-8-fluoro-2-(((2R,7aS)-2-fluorotetrahydro-1H-pyrrolizin-7a(5H)-yl)methoxy)pyrido[4,3-d]pyrimidin-4-yl)-2-oxa-5,8-diazaspiro[3.5]nonan-5-yl)-4-morpholinobut-2-en-1-one] showed a pIC50 of at most 6.30.
`O=C(/C=C/CN1CC2CC(C1)O2)N1CCN(c2nc(OC[C@@]34CCCN3C[C@H](F)C4)nc3c(F)c(-c4cccc5cccc(Cl)c45)ncc23)CC12COC2` [Example 14, (E)-4-(6-oxa-3-azabicyclo[3.1.1]heptan-3-yl)-1-(8-(7-(8-chloronaphthalen-1-yl)-8-fluoro-2-(((2R,7aS)-2-fluorotetrahydro-1H-pyrrolizin-7a(5H)-yl)methoxy)pyrido[4,3-d]pyrimidin-4-yl)-2-oxa-5,8-diazaspiro[3.5]nonan-5-yl) but-2-en-1-one]: the negative logarithm of the IC50 (pIC50) is 7.00 to 8.00.
Molecule `C=CC(=O)N1[C@H](C)CN(c2nc(OC[C@@]34CCCN3C[C@H](F)C4)nc3c(F)c(-c4cccc5cccc(Cl)c45)ncc23)CC12COC2` [Example 72] showed a negative logarithm of the IC50 (pIC50) of 6.30 to 7.00.
As to `C=CC(=O)N1CCN(c2nc(OC[C@@]34CCCN3C[C@H](F)C4)nc3c(F)c(-c4c(Cl)c(C)cc5[nH]ncc45)ncc23)CC12COC2` [Example 51, 1-(8-(7-(5-chloro-6-methyl-1H-indazol-4-yl)-8-fluoro-2-(((2R,7aS)-2-fluorotetrahydro-1H-pyrrolizin-7a(5H)-yl)methoxy)pyrido[4,3-d]pyrimidin-4-yl)-2-oxa-5,8-diazaspiro[3.5]nonan-5-yl) prop-2-en-1-one], the pIC50 was 7.00 to 8.00.
With `C=CC(=O)N1CC(C)N(c2nc(OC[C@@]34CCCN3C[C@H](F)C4)nc3c(F)c(-c4cccc5cccc(Cl)c45)ncc23)CC12COC2` (stereo partly shown) [Example 65], the pIC50 is 7.00 to 8.00.
In turn, `C=CC(=O)N1CCN(c2nc(OC[C@@]34CCCN3C[C@H](F)C4)nc3c(F)c(-c4cc(O)cc(Cl)c4C4CC4)ncc23)CC12CCOC2` (stereo partly drawn) [Example 85, 1-(9-(7-(3-chloro-2-cyclopropyl-5-hydroxyphenyl)-8-fluoro-2-(((2R,7aS)-2-fluorotetrahydro-1H-pyrrolizin-7a(5H)-yl)methoxy)pyrido[4,3-d]pyrimidin-4-yl)-2-oxa-6,9-diazaspiro[4.5]decan-6-yl) prop-2-en-1-one] had a pIC50 of over 8.00.
In the case of `Cc1nccc(/C=C(\F)C(=O)N2CCN(c3nc(OC[C@@]45CCCN4C[C@H](F)C5)nc4c(F)c(-c5cccc6ccc(F)c(F)c56)ncc34)CC23COC3)n1` [Example 60, (Z)-1-(8-(7-(7,8-difluoronaphthalen-1-yl)-8-fluoro-2-(((2R,7aS)-2-fluorotetrahydro-1H-pyrrolizin-7a(5H)-yl)methoxy)pyrido[4,3-d]pyrimidin-4-yl)-2-oxa-5,8-diazaspiro[3.5]nonan-5-yl)-2-fluoro-3-(2-methylpyrimidin-4-yl) prop-2-en-1-one] it was over 8.00; in that of `O=C(/C=C/CN1[C@@H]2CC[C@H]1COC2)N1CCN(c2nc(OC[C@@]34CCCN3C[C@H](F)C4)nc3c(F)c(-c4cccc5cccc(Cl)c45)ncc23)CC12COC2` [Example 4, (E)-4-((1R,5S)-3-oxa-8-azabicyclo[3.2.1]octan-8-yl)-1-(8-(7-(8-chloronaphthalen-1-yl)-8-fluoro-2-(((2R,7aS)-2-fluorotetrahydro-1H-pyrrolizin-7a(5H)-yl)methoxy)pyrido[4,3-d]pyrimidin-4-yl)-2-oxa-5,8-diazaspiro[3.5]nonan-5-yl) but-2-en-1-one], over 8.00.
The figure for `C=CC(=O)N1CCN(c2nc(OC[C@@H]3CCCN3C)nc3c(F)c(-c4cccc5cccc(Cl)c45)ncc23)CC12CCOC2` (stereo partly shown) [Example 83] is at most 6.30.
In turn, `C=CC(=O)N1CCN(c2nc(OC[C@@]34CCCN3C[C@H](F)C4)nc3c(F)c(-c4cc(O)cc(Cl)c4C4CC4)ncc23)CC12COC2` [Example 31, 1-(8-(7-(3-chloro-2-cyclopropyl-5-hydroxyphenyl)-8-fluoro-2-(((2R,7aS)-2-fluorotetrahydro-1H-pyrrolizin-7a(5H)-yl)methoxy)pyrido[4,3-d]pyrimidin-4-yl)-2-oxa-5,8-diazaspiro[3.5]nonan-5-yl) prop-2-en-1-one] had a pIC50 of over 8.00.
The figure for `Cc1nccc(/C=C/C(=O)N2CCN(c3nc(OCC45CCCN4CCC5)nc4c(F)c(-c5cccc6cccc(Cl)c56)ncc34)CC23COC3)n1` [Example 7, (E)-1-(8-(7-(8-chloronaphthalen-1-yl)-8-fluoro-2-((tetrahydro-1H-pyrrolizin-7a(5H)-yl)methoxy)pyrido[4,3-d]pyrimidin-4-yl)-2-oxa-5,8-diazaspiro[3.5]nonan-5-yl)-3-(2-methylpyrimidin-4-yl) prop-2-en-1-one] is 6.30 to 7.00.
